Data on 59 compounds can be found in a melting point compilation (Tetko et al.; mined from patent text by program, amines drawn as free bases though some values may be those of a salt).

What is called melting point is the temperature, or range, at which the solid turns liquid.

For `CCCCOc1nc(N)c2[nH]c(=O)n(CCCCN(CC(C)(C)CN(C)C)S(=O)(=O)c3cccc(CC(=O)O)c3)c2n1`, the melting point lay in the range of 175 to 176 °C.

The compound `CCC(CC)Nc1cc(C)nc(Oc2c(C)cc(C)cc2C)c1N` returned a melting point of 105 to 107 °C.

With `COC(=O)[C@@H]1COC(c2ncn3c2CN(C)C(=O)c2ccccc2-3)=N1`, the melting point fell in the range of 190 to 192 °C.

As to `CC(C)Oc1ccc(CCCOc2ncccc2CC(=O)O)c(Oc2ncc(Cl)cc2Cl)c1`, the melting point fell in the range of 84 to 85 °C.

Compound `Fc1ccccc1-c1nc2cnccc2o1` showed a melting point of 110 to 111 °C.

Consider `O=C(O)CCc1ccc(NC(=O)C(COC2CCCCO2)NS(=O)(=O)c2ccc(Cl)cc2)cc1` (racemic), for which the melting point fell in the range of 150 to 151 °C.

As for `COC(=O)NC1=NCC(c2ccc(I)cc2)CN1` (centres undefined), the melting point lay in the range of 209 to 210 °C.

Compound `N#CC(=Cc1ccsc1)C(=O)O` displayed a melting point of 211 °C.

Compound `CN(C)Cc1ccc(CNC(=O)C2Cc3ccccc3N2S(=O)(=O)c2ccc(-c3ccccc3C(F)(F)F)cc2)cc1` (centres undefined) returned a melting point of 53 °C.

`COC(=O)C=C1CN2C(=O)N(c3cc(Cl)cc(Cl)c3)C(=O)C2(Cc2ccc(Br)cc2)C1` (centres undefined) registered a melting point of 74.9 °C.

Consider `COc1ccccc1-c1ccc2cnc(Nc3ccc(N4CCN(CC(N)=O)CC4)c(F)c3)nn12`, for which the melting point was 186 °C.

As to `O=c1[nH]c(=Cc2cccs2)c(=O)[nH]c1=Cc1ccc(OCc2ccccc2)cn1`, the melting point is 215 to 217 °C.

Take `CCOC(=O)CCc1cc2c(Nc3ccc4[nH]ccc4c3)c(C#N)cnc2s1`: the melting point worked out at 202 °C.

Consider `CC(C#N)=C1CCN(c2ccc(N3C[C@H](CNC(=O)CC#N)OC3=O)cc2F)CC1`, for which the melting point was in the range of 194 to 196 °C.

In the case of `O=C(c1ccccc1)N(c1ccccc1)c1ccc(OCc2ccccc2)cc1`, the melting point is 141 to 143 °C.

`CS(=O)CC1=C(c2ccccc2)C(=O)N(C(C)(C)C(=O)Nc2cc(F)ccc2F)CO1` (centres undefined) returned a melting point of 105 to 107 °C.

For the compound `CCC1(CO)CCCN2CCC3=c4ccccc4=NC3=C21` (centres undefined), the melting point lay within 111 to 113 °C.

The compound `CCCCC(=O)C(Cc1ccc(C#N)cc1)c1ccccc1` (centres undefined) gave a melting point of 70 °C.

`O=C(Nc1cccc(-c2ccnc3c(C(=O)c4cccs4)cnn23)c1)c1c(Cl)cccc1Cl` registered a melting point of 245 to 246 °C.

Turning to `Cc1onc(-c2ccccc2)c1C(=O)NCCCN1CCN(c2ccccc2OCC(F)(F)F)CC1`, the melting point lay within 124 to 125 °C.

Consider `COCCCCCC=C(NC(=O)C1CC1(C)C)C(=O)O` (centres undefined), for which the melting point was 71 to 72 °C.

`COc1ccc(C(=O)Nc2c(Cl)cncc2Cl)c2c1OCC2CC(=O)Nc1c(Cl)cncc1Cl` (centres undefined) displayed a melting point of over 300 °C.

With `Cc1ncccc1-c1nc(C(F)(F)F)cn1-c1ccc(S(C)(=O)=O)cc1`, the melting point lay within 160 to 161 °C.

The compound `CCCCCCCCCCCCCCCCSCC(O)COC(c1ccccc1)(c1ccccc1)c1ccccc1` (centres undefined) came in with a melting point of 61 to 62 °C.

`CCOC(=O)c1ccc(Nc2nc(=O)c3cccnc3s2)cc1` registered a melting point of 230 to 233 °C.

`Cc1ccc(C(=O)N2CCc3cc(S(=O)(=O)N4CC(c5ccccc5)NC4=O)ccc32)cc1` (centres undefined) had a melting point of 125 °C.

The compound `CC(=O)OC(c1cscc1S(N)(=O)=O)C(C)F` (centres undefined) displayed a melting point of 92 to 94 °C.

The compound `CCOC(=O)N[C@@H]1Cc2ccccc2[C@H]1Nc1ccccc1C(=O)OC` (relative stereo) had a melting point of 108 to 110 °C.

In turn, `CCCCNC(=O)C1CC2(NC(=O)NC2=O)c2cc(F)ccc2O1` (centres undefined) came in with a melting point of 286 to 288 °C.

Compound `CS(=O)(=O)c1ccc(C(=O)O)c(F)c1F` gave a melting point of 214 to 215 °C.

For `c1cc2nc3c(n2nc1N1CCCC1)CCCC3`, the melting point is 161 °C.

In turn, `C1=COc2ccccc2O1` returned a melting point of 59 to 61 °C.

Regarding `Cc1cccc(NC(=O)NCC(=O)N(c2ccccc2)C(C(=O)N2CCCC2)c2ccccc2)c1` (racemic), the melting point worked out at 138 °C.

Consider `O=C(Nc1nccs1)C(CC1CCCC1)c1ccc(C(F)(F)F)c(F)c1` (centres undefined), for which the melting point fell in the range of 194 to 195 °C.

The compound `CC(C)(C)CNc1nc(NC(C)(C)C)cc(N2CCNCC2)n1` returned a melting point of 146 to 148 °C.

In turn, `COc1ccc(C(=O)Nc2ccc(-c3ccc4c(c3)OCO4)cc2)cc1CCCN(C)C` returned a melting point of 190 to 192 °C.

`COC(=O)CCCc1cc2cc(Cl)ccc2n1S(=O)(=O)c1ccc2nsnc2c1` came in with a melting point of 103 to 106 °C.

The compound `O=C(C1CCCC1)[C@H]1CCn2c(cc3ccccc32)C1` displayed a melting point of 69 °C.

`Cc1nc2ccc(NCCCN3CCC(OC(c4ccccc4)c4ccccc4)CC3)nn2c1C(=O)O` showed a melting point of 101 to 103 °C.

For `O=C(Nc1ccc(F)cc1F)C1C(=O)N2c3ccccc3Sc3cccc1c32` (centres undefined), the melting point was in the range of 208 to 209 °C.

For `CS(=O)(=O)c1ccc(-n2nc(C(F)(F)F)cc2-c2ccc(-c3cscn3)c(F)c2)cc1F`, the melting point lay within 156 to 158 °C.

On to `CCN1CCNC(=O)C1c1ccc(Nc2nc(-c3ccc(F)c(NC(=O)c4cc5c(s4)CCCC5)c3C)cn(C)c2=O)cc1` (centres undefined), for which the melting point lay in the range of 179 to 180 °C.

As for `CCOCCn1c(C2CCN(CCc3ccc(C(C)(C)C)cc3)CC2)nc2ccccc21`, the melting point was 138 to 140 °C.

With `CCOC(=O)c1cn(CC)c2c(F)c(F)c(F)c(C)c2c1=O`, the melting point lay in the range of 197 to 198 °C.

The compound `COc1ccc(-c2csc(Nc3cccnc3)n2)cc1OC` showed a melting point of 251 to 254 °C.

The compound `O=C(O)COc1ccc(-c2c3ccccc3c(Br)c3sc4ccccc4c23)cc1` returned a melting point of 198 to 200 °C.

`C=C1CCC2C3CCC4=C(CC=C(OC)C4)C3CCC12C` (centres undefined): the melting point fell in the range of 77 to 78 °C.

`O=C(NCc1cncs1)c1ccnc(N2CCN(Cc3ccc(F)cc3)C2=O)c1` displayed a melting point of 148 to 150 °C.

The compound `C=C[C@@H](C[C@H](O)[C@H](CC1CCCCC1)NC(=O)[C@H](Cc1c[nH]cn1)NC(=O)[C@@H](CC(=O)NN)Cc1ccccc1)C(C)C` returned a melting point of 109 °C.

The compound `CCOCc1nc2c(N)nc3ccccc3c2n1CC(C)(C)CS(N)(=O)=O` returned a melting point of 229 to 231 °C.

The compound `O=C(N[C@H](Cc1ccccc1)[C@H](O)C(=O)O)OCc1ccccc1` had a melting point of 154 to 155 °C.

In turn, `CCOC1CCN(C(=O)c2cc(-c3ccccc3)c(=O)n3ccc4ccsc4c23)C1` (centres undefined) registered a melting point of 167 to 170 °C.

The compound `CN(C)CCN(C)C(=O)Cc1ccc(NC(=O)OCc2ccccc2)cc1` returned a melting point of 109 to 110 °C.

`O=C(c1ccccc1)c1ccc(O)c(O)c1[N+](=O)[O-]` came in with a melting point of 153 to 155 °C.

Compound `COc1ccc(N2C(=O)/C(=C/C(C)=NO)C2c2ccccc2)cc1` (centres undefined) gave a melting point of 204 to 206 °C.

In the case of `Cc1oc(-c2ccccc2)nc1COc1ccc(C(=O)c2ccc(O)cc2OCC(=O)O)cc1`, the melting point was in the range of 229 to 230 °C.

As for `COC(=O)C1=Cc2cc(-c3ccc(N4CCCCC4)cc3)ccc2S(=O)(=O)CC1`, the melting point is 202 to 204 °C.

`COc1cccc(CCNC(=O)c2nc(N)sc2-c2ccncc2)c1OC` gave a melting point of 167 to 168 °C.

In turn, `CON(C)C(=O)c1ccc(F)cc1` had a melting point of 9 °C.
